The text below walks through data of patent US20100050299A1, “POST-HARVEST TREATMENT OF FRUITS WITH AN ANTIFUNGAL COMPOSITION” (priority 2006, published 2010).

In experiment [1] the test system is Colletotridcum musae CBS19231. Put plainly: Treatment of bananas with wounds made with a knife at the stalk (Example 2). Particulars: for wounds/bananas with mould growth: after 15 days of incubation, 3 bananas, wound at the stalk; for Number of wounds showing mould growth/Total number of wounds: after 15 days, 3 wounds (3 bananas with 1 wound made at the stalk per banana). The experiment is classed as in vivo. As for the experimental part: (§1) In this experiment organic bananas, Sabrosa® from the Dominican Republic, were used. The bananas were obtained from a local retailer in The Netherlands. The bananas were treated with spores of the phytopathogenic mould Colletotridcum musae CBS19231. The mould spores were obtained using well-known methods. The bananas were injured according to the method described by de Lapere de Bellaire and Dubois (1987). Bananas were wounded two times using a cork borer followed by contamination with approximately 2.5×10^4 mould spores of C. musae CBS19231 per wound. After incubation for 4 hours at room temperature, the bananas were dipped for one minute in one of the following compositions: a) no treatment (control 1), b) dipped in water (control 2), c) dipped in 1000 ppm natamycin, d) dipped in 240 mM of potassium phosphite, e) dipped in 1000 ppm of natamycin+240 mM of potassium phosphite. The experiment was executed in triplo; the natamycin and potassium phosphite solution were prepared using well-known methods. All compositions contained 0.1% (v/v) of the sticking agent Bond® (Loveland Industries Ltd.) and 0.14% (v/v) of the surfactant Zipper® (Asepta BV, The Netherlands). After this treatment the bananas were incubated in closed boxes at 21° C. at elevated humidity. Each day the bananas were judges visually on mould development.
The experiment described in this example was done identically compared to the experiment described in Example 1, with the proviso that the wounds were made with a knife at the stalk of the bananas.

In experiment [2] the test system is Colletotridcum musae CBS19231. Put plainly: Treatment of freshly harvested banana clusters, new wounds made with a knife at the stalk (Example 4). The experiment is classed as in vivo. Particulars: for mould growth on banana clusters: after 15 days of incubation, 3 banana clusters; for Number of clusters showing severe mould growth/Total number of clusters: after 15 days, freshly harvested, 3 clusters, 2 wounds per cluster at the stalk. The method, then:
as §1
(§2) In this experiment freshly harvested bananas were used. A few days after harvesting and the de-latexing treatment to remove latex which is leaking from the wounds using well-known methods, the bananas were infected with mould spores and treated as described in Example 1. For each composition, 3 clusters comprising 4 bananas per cluster were used (experiment done in triplo).
(§3) The experiment described in this example was done identically compared to the experiment described in Example 3, with the proviso that bananas were harvested and thereafter new wounds were made with a knife at the stalk of the banana clusters (2 wounds were made per cluster).

Experiment [3] deals with Colletotridcum musae CBS19231. Put plainly: Treatment of bananas wounded with a cork borer and contaminated with mould spores, then dipped (Example 1). The experiment is classed as in vivo. The note with it: for Number of wounds showing mould growth/Total number of wounds: after 15 days at 21° C., dipped one minute, 1000 ppm natamycin, 240 mM potassium phosphite, 6 wounds (3 bananas with 2 wounds per banana); for wounds showing mould growth: after 15 days, out of 6 wounds. As for the experimental part:
as §1

The test system of experiment [4] is Colletotridcum musae CBS19231. In words: Treatment of bananas, Neocryl and xanthan instead of Bond and Zipper (Example 5). The experiment is classed as in vivo. Particulars: after 15 days; for wounds showing mould growth: 12 wounds; for Number of wounds showing mould growth/Total number of wounds: Neocryl 21.3 g/l and xanthan 1.0 g/l, 12 wounds (6 bananas with 2 wounds per banana). As for the experimental part:
as §1
The experiment described herein was executed as described in Example 1. However, in this experiment the sticking agent Bond® and the surfactant Zipper® were not used; instead Neocryl® (DSM) and xanthan were applied in a concentration of respectively 21.3 g/l and 1.0 g/l. In this experiment 12 wounds were made instead of 6 (2 wounds per banana; 6 bananas wounded).

For experiment [5], the system named is Colletotridcum musae CBS19231. Put plainly: Treatment of freshly harvested banana clusters (Example 3). The experiment is classed as in vivo. The note with it: for bananas of the clusters on which moulds were observed: after 15 days of incubation, 12 bananas; for Number of bananas showing mould growth/Total number of bananas: after 15 days, freshly harvested, 12 bananas (3 clusters with 4 bananas per cluster). The method, then:
as §1, §2

In experiment [6] the test system is Colletotridcum musae CBS19231. Put plainly: Treatment of banana clusters wounded at the hand, Neocryl and xanthan instead of Bond and Zipper (Example 6). Particulars: for wounds with mould growth: after 15 days of incubation, 6 wounds; for Number of wounds showing mould growth/Total number of wounds: after 15 days, Neocryl 21.3 g/l and xanthan 1.0 g/l, 6 wounds (3 clusters, 2 wounds per cluster at the hand). The experiment is classed as in vivo. The method, then:
as §1, §2, §3
The experiment described herein was executed as described in Example 4, with the proviso that the sticking agent Bond® and the surfactant Zipper® were replaced by Neocryl® (DSM) and xanthan in a concentration of respectively 21.3 g/l and 1.0 g/l. Three clusters comprising 4 bananas each were wounded two times at the hand of the cluster resulting in a total number of wounds of 6.

For another experiment, the system named is moulds on bananas. The note with it: in vivo; cited from earlier work.

Take `C[C@@H]1C/C=C/C=C/C=C/C=C/[C@H](O[C@@H]2O[C@H](C)[C@@H](O)[C@H](N)[C@@H]2O)C[C@@H]2O[C@](O)(C[C@@H](O)C[C@H]3O[C@@H]3/C=C/C(=O)O1)C[C@H](O)[C@H]2C(=O)O` [Composition c, natamycin]: in experiment [1], the “wounds/bananas with mould growth” value is 2 of 3 and the “Number of wounds showing mould growth/Total number of wounds” value was 2/3. In experiment [2], the “mould growth on banana clusters” value was “in all of the natamycin treated banana clusters” and the “Number of clusters showing severe mould growth/Total number of clusters” value is given as 3/3. Besides, in experiment [3], the “Number of wounds showing mould growth/Total number of wounds” value is recorded as 6/6 and the “wounds showing mould growth” value is listed as 6. Besides, in experiment [4], the “wounds showing mould growth” value is given as 50% and the “Number of wounds showing mould growth/Total number of wounds” value is listed as 6/12. For the same compound, in experiment [5], the “bananas of the clusters on which moulds were observed” value is “all bananas” and the “Number of bananas showing mould growth/Total number of bananas” value is 12/12. Also, in experiment [6], the “wounds with mould growth” value is “all wounds” and the “Number of wounds showing mould growth/Total number of wounds” value was 6/6. Further, in the experiment with moulds on bananas, the “control of moulds on bananas” value was “not sufficiently active” and the spectrum of action entry is listed as “broad spectrum action”.

For the compound potassium phosphite [Composition d], in experiment [1], the “wounds/bananas with mould growth” value is “all wounds” and the “Number of wounds showing mould growth/Total number of wounds” value was 3/3. In experiment [2], the “mould growth on banana clusters” value is given as 2 of the 3 and the “Number of clusters showing severe mould growth/Total number of clusters” value was 2/3. For the same compound, in experiment [3], the “Number of wounds showing mould growth/Total number of wounds” value is on record as 5/6 and the “wounds showing mould growth” value is on record as 5 out of 6. Besides, in experiment [4], the “wounds showing mould growth” value stood at 25% and the “Number of wounds showing mould growth/Total number of wounds” value is listed as 3/12. Also, in experiment [5], the “bananas of the clusters on which moulds were observed” value was “all bananas” and the “Number of bananas showing mould growth/Total number of bananas” value is on record as 12/12. In experiment [6], the “wounds with mould growth” value is “all wounds” and the “Number of wounds showing mould growth/Total number of wounds” value is given as 6/6.
